Measurements taken from US12268674B2, “Mi-2β inhibitor as an immunotherapy agent” (BioVentures, LLC, priority 2021, dated 2025).

Assays:
[1] = system: Mi-2β function (CXCL9, CXCL10, IRF1 expression) in A375 cells; assay: Cell-based assay of inhibitory activity on Mi-2β function, A375; settings: summary of Table 3 (A375 and B16)
Procedure: The total RNA was extracted with QIAGEN RNeasy kit […] for cDNA synthesis with SuperScript II Reverse Transcriptase (Invitrogen). In total, 40 ng cDNA was used for quantitative real-time PCR amplification by TaqMan Gene Expression Master Mix (Thermo Fisher Scientific). The relative transcript levels were normalized with GAPDH expression. The data were calculated with the comparative CT method.

[2] = molecular target: T1, MVK (Homo sapiens, UniProt Q03426); assay: ATPase profile (ATP acyl phosphate probe); assay type: binding; settings: SEQ ID NO: 127, ATP BS
T1 construct: to get the native cell lysate; endogenous in cells; host or cells: A375

[3] = molecular target: T2, MCCC1 (Homo sapiens, UniProt Q96RQ3); assay: ATPase profile (ATP acyl phosphate probe); assay type: binding
T2 construct: to get the native cell lysate; endogenous in cells; host or cells: A375

[4] = molecular target: T3, TOR1B (Homo sapiens, UniProt O14657); assay: ATPase profile (ATP acyl phosphate probe); assay type: binding; settings: SEQ ID NO: 204, ATP BS
T3 construct: to get the native cell lysate; endogenous in cells; host or cells: A375 cell lysate

[5] = molecular target: T4, CCT3 (Homo sapiens, UniProt P49368); assay: ATPase profile (ATP acyl phosphate probe); assay type: binding; settings: CCT3, SEQ ID NO: 52, ATP BS
T4 construct: to get the native cell lysate; host or cells: A375 cell lysate

[6] = molecular target: T5, PAICS (Homo sapiens, UniProt P22234); assay: ATPase profile (ATP acyl phosphate probe); assay type: binding; settings: SEQ ID NO: 151, ATP BS
T5 construct: to get the native cell lysate; endogenous in cells; host or cells: A375

[7] = molecular target: T6, DYNC1H1 (Homo sapiens, UniProt Q14204); assay: ATPase profile (ATP acyl phosphate probe); assay type: binding
T6 construct: endogenous in cells; host or cells: A375 cell lysate

[8] = molecular target: T7, VCP (Homo sapiens, UniProt P55072); assay: ATPase profile (ATP acyl phosphate probe); assay type: binding
T7 construct: to get the native cell lysate; endogenous in cells; host or cells: A375 cell lysate

[9] = molecular target: T8, HSPA2 (Homo sapiens, UniProt P54652); assay: ATPase profile (ATP acyl phosphate probe); assay type: binding
T8 construct: to get the native cell lysate; endogenous in cells; host or cells: A375

[10] = molecular target: T9, PFKFB2 (Homo sapiens, UniProt O60825); assay: ATPase profile (ATP acyl phosphate probe); assay type: binding; settings: PFKFB2, SEQ ID NO: 158, ATP BS
T9 construct: to get the native cell lysate; endogenous in cells; host or cells: A375 cell lysate

[11] = molecular target: T10, ACLY (Homo sapiens, UniProt P53396); assay: ATPase profile (ATP acyl phosphate probe); assay type: binding
T10 construct: to get the native cell lysate; host or cells: A375 cell lysate

[12] = molecular target: T11, NUDT1 (Homo sapiens, UniProt P36639); assay: ATPase profile (ATP acyl phosphate probe); assay type: binding
T11 construct: to get the native cell lysate; endogenous in cells; host or cells: A375

[13] = molecular target: T12, PDE12 (Homo sapiens, UniProt Q6L8Q7); assay: ATPase profile (ATP acyl phosphate probe); assay type: binding; settings: PDE12, SEQ ID NO: 155, ATP BS
T12 construct: to get the native cell lysate; endogenous in cells; host or cells: A375 cell lysate

[14] = molecular target: T13, CCT4 (Homo sapiens, UniProt P50991); assay: ATPase profile (ATP acyl phosphate probe); assay type: binding; settings: CCT4, SEQ ID NO: 53, ATP BS
T13 construct: to get the native cell lysate; host or cells: A375 cell lysate

[15] = molecular target: PSMC2 (Homo sapiens, UniProt P35998); assay: ATPase profile (ATP acyl phosphate probe); assay type: binding; settings: PSMC2, SEQ ID NO: 174, ATP BS
[16] = molecular target: T14, TTLL12 (Homo sapiens, UniProt Q14166); assay: ATPase profile (ATP acyl phosphate probe); assay type: binding
T14 construct: to get the native cell lysate; endogenous in cells; host or cells: A375 cell lysate

[17] = molecular target: T15, ABCD3 (Homo sapiens, UniProt P28288); assay: ATPase profile (ATP acyl phosphate probe); assay type: binding; settings: ABCD3, SEQ ID NO: 13, ATP BS
T15 construct: to get the native cell lysate; host or cells: A375 cell lysate

[18] = molecular target: T16, TOR3A (Homo sapiens, UniProt Q9H497); assay: ATPase profile (ATP acyl phosphate probe); assay type: binding; settings: SEQ ID NO: 206, ATP BS
T16 construct: to get the native cell lysate; endogenous in cells; host or cells: A375 cell lysate

[19] = molecular target: T17, PRPS1 (Homo sapiens, UniProt P60891); assay: ATPase profile (ATP acyl phosphate probe); assay type: binding; settings: PRPS1, SEQ ID NO: 171, ATP BS
T17 construct: endogenous in cells; host or cells: A375 cell lysate

[20] = molecular target: T18, UBA6 (Homo sapiens, UniProt A0AVT1); assay: ATPase profile (ATP acyl phosphate probe); assay type: binding; settings: UBA6, SEQ ID NO: 222, ATP BS
T18 construct: to get the native cell lysate; endogenous in cells; host or cells: A375 cell lysate

[21] = molecular target: T19, HNRNPU (Homo sapiens, UniProt Q00839); assay: ATPase profile (ATP acyl phosphate probe); assay type: binding; settings: SEQ ID NO: 92, ATP BS
T19 construct: endogenous in cells; host or cells: A375

[22] = molecular target: T20, ASNA1 (Homo sapiens, UniProt O43681); assay: ATPase profile (ATP acyl phosphate probe); assay type: binding
T20 construct: to get the native cell lysate; host or cells: A375 cell lysate

[23] = system: VPS4A, VPS4B; assay: ATPase profile (ATP acyl phosphate probe); assay type: binding; settings: SEQ ID NO: 229, ATP BS
[24] = molecular target: PRKAG2 (Homo sapiens, UniProt Q9UGJ0); assay: ATPase profile (ATP acyl phosphate probe); assay type: binding; settings: PRKAG2, SEQ ID NO: 170, ATP BS
[25] = molecular target: UBA1 (Homo sapiens, UniProt P22314); assay: ATPase profile (ATP acyl phosphate probe); assay type: binding; settings: UBA1, SEQ ID NO: 217, ATP BS
[26] = molecular target: T21, CLPX (Homo sapiens, UniProt O76031); assay: ATPase profile (ATP acyl phosphate probe); assay type: binding; settings: SEQ ID NO: 59, ATP BS
T21 construct: endogenous in cells; host or cells: A375 cell lysate

[27] = molecular target: T22, ACACB (Homo sapiens, UniProt O00763); assay: ATPase profile (ATP acyl phosphate probe); assay type: binding; settings: SEQ ID NO: 21, ATP BS
T22 construct: to get the native cell lysate; host or cells: A375 cell lysate

T7 sequence (P55072 2-806 limits assumed): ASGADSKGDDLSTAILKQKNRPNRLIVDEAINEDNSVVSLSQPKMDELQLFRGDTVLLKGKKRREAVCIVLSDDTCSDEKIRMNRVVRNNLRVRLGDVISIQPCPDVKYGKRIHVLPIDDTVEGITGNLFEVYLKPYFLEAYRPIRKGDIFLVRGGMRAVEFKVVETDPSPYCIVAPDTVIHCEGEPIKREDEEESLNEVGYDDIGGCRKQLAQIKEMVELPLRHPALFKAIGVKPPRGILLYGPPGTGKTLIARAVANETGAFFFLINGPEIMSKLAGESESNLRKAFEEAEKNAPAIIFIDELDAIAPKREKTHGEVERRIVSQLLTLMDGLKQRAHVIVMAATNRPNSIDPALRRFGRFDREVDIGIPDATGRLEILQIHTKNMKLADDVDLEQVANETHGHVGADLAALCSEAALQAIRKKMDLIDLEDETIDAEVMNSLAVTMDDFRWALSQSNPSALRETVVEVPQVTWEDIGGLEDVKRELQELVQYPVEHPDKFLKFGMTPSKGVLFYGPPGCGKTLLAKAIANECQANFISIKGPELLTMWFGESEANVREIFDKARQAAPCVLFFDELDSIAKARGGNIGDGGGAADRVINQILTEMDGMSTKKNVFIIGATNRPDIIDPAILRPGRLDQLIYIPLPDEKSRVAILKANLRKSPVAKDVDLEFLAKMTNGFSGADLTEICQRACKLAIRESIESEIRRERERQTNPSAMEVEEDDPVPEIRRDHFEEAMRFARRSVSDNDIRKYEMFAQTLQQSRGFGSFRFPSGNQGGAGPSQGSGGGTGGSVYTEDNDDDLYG
T14 sequence (Q14166 whole entry): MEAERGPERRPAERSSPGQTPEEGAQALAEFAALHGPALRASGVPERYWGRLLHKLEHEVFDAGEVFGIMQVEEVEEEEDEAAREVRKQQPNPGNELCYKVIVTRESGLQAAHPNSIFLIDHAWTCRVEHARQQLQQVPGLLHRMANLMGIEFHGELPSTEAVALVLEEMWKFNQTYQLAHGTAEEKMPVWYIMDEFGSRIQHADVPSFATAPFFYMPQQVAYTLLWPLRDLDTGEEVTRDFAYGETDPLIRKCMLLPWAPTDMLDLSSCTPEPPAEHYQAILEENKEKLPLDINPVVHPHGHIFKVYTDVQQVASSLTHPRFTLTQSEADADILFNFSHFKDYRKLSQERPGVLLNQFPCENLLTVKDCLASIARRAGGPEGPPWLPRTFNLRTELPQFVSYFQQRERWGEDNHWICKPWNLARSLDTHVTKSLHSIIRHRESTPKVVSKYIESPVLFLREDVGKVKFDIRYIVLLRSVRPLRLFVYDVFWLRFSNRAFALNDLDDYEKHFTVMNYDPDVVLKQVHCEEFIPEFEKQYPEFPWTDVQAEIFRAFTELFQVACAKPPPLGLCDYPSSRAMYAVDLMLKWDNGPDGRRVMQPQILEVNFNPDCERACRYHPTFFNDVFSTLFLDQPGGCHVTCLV
T2 sequence (Q96RQ3 48-725 limits assumed): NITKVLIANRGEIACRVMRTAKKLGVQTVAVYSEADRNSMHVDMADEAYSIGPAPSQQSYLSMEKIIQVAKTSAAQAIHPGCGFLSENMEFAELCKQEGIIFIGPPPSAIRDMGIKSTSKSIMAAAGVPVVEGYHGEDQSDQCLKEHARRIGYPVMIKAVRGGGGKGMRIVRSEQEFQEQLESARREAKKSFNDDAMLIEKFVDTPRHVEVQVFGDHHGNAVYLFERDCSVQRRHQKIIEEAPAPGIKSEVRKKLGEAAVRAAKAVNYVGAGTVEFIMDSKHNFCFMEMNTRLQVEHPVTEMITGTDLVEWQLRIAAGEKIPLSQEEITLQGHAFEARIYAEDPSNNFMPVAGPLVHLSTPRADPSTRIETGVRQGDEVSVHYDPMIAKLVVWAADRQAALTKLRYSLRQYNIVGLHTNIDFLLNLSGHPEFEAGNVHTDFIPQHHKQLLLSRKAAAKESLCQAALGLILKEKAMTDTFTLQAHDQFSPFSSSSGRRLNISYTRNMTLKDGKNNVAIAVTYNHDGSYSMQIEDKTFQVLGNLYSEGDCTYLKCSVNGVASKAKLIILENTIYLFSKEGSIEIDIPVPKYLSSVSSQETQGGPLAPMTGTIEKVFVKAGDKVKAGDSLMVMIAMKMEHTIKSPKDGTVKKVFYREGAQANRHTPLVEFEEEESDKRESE
T2 sequence (Q9HCC0 23-563 partner): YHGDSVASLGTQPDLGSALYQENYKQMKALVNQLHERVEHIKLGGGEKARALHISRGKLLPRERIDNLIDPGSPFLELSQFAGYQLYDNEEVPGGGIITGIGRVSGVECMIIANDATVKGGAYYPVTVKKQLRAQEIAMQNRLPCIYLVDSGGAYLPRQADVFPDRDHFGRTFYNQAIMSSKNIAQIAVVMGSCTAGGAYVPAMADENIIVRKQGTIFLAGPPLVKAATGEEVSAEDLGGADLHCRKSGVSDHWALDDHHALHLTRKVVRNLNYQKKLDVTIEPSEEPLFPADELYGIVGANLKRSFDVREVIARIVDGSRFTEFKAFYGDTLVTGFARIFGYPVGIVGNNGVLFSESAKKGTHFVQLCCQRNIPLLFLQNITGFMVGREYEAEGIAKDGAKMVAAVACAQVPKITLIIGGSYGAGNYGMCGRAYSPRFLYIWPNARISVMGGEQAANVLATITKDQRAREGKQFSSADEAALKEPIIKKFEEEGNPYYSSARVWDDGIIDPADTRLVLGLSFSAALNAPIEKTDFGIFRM
T8 sequence (P54652 whole entry): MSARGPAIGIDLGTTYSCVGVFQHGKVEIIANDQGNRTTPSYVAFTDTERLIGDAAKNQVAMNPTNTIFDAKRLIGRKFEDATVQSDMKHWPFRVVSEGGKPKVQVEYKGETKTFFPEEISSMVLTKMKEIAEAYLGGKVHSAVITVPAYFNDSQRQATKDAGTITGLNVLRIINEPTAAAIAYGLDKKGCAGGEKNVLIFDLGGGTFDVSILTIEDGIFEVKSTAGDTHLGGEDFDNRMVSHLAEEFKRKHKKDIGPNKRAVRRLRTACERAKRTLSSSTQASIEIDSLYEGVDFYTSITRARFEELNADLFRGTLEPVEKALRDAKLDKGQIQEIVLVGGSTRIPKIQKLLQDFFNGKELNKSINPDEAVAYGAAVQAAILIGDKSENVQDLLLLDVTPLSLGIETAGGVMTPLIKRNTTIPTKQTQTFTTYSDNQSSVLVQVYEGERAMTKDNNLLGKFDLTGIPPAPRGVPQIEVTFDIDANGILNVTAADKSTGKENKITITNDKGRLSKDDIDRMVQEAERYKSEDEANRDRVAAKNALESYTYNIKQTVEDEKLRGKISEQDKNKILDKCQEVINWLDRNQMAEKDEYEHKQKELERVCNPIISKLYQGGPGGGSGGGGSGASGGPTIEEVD
T20 sequence (O43681 whole entry): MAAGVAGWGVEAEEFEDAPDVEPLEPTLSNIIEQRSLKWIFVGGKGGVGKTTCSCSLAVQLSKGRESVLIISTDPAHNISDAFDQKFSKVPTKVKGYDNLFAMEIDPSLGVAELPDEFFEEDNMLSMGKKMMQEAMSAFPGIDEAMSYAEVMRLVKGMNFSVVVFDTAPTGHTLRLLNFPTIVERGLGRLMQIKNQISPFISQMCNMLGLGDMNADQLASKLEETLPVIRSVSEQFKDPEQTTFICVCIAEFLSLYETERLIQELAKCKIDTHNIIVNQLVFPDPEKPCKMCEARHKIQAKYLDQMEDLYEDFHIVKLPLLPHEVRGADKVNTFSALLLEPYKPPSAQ
T10 sequence (P53396 whole entry): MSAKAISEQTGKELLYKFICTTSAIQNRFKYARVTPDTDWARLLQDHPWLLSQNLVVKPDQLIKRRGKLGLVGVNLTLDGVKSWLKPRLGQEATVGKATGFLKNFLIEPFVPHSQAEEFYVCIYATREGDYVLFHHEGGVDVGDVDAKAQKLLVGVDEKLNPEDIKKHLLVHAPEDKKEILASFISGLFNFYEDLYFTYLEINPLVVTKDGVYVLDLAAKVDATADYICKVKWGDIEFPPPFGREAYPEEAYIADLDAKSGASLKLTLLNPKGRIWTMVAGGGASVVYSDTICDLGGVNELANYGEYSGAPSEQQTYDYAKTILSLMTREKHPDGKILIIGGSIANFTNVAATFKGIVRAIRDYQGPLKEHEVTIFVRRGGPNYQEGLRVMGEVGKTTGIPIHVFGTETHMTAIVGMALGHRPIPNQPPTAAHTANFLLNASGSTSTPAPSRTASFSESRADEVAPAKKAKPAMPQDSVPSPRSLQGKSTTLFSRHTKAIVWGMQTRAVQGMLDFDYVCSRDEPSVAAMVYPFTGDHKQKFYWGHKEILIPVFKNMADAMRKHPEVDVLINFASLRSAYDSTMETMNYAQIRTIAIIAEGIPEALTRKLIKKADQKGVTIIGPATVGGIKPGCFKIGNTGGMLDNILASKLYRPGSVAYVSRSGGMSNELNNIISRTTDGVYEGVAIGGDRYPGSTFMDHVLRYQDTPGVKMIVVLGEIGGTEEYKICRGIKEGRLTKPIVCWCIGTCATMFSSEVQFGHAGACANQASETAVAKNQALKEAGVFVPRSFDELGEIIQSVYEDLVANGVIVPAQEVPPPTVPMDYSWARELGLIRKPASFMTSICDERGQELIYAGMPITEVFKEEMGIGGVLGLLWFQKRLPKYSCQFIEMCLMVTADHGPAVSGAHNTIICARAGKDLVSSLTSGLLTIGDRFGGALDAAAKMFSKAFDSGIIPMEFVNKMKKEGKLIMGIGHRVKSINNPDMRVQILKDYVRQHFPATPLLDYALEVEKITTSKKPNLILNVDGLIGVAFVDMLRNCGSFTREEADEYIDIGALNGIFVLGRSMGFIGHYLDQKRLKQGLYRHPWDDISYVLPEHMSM

Cn1c(=O)[nH]c2ccc(-c3cccc(C(=O)NC4CCn5ccnc5C4)c3)cc21 (centres unmarked) [Z36-MP5, 3-(3-methyl-2-oxo-2,3-dihydro-1H-benzo[d]imidazol-5-yl)-N-(5,6,7,8-tetrahydroimidazo[1,2-a]pyridin-7-yl)benzamide]
inhibitory activity on Mi-2β function (enhanced expression of IFN-γ-responsive genes) [1]: most effective compound
Inhibition (%) by 1 μM Z36-MP5 [2]: 15.38%
Inhibition (%) by 1 μM Z36-MP5 ([3]; MCCC1, SEQ ID NO: 116, ATP BS): −6.46%
Inhibition (%) by 1 μM Z36-MP5 ([3]; MCCC1, SEQ ID NO: 117, ATP BS): 4.45%
Inhibition (%) by 1 μM Z36-MP5 [4]: 2.00%
Inhibition (%) by 1 μM Z36-MP5 [5]: 10.09%
Inhibition (%) by 1 μM Z36-MP5 [6]: 19.51%
Inhibition (%) by 1 μM Z36-MP5 ([7]; DYNC1H1, SEQ ID NO: 74, ATP BS): −1.99%
Inhibition (%) by 1 μM Z36-MP5 ([7]; DYNC1H1, SEQ ID NO: 75, ATP BS): 0.38%
Inhibition (%) by 1 μM Z36-MP5 ([8]; SEQ ID NO: 225, ATP BS): −8.02%
Inhibition (%) by 1 μM Z36-MP5 ([8]; SEQ ID NO: 226, ATP BS): −2.36%
Inhibition (%) by 1 μM Z36-MP5 ([8]; SEQ ID NO: 227, ATP BS): −7.20%
Inhibition (%) by 1 μM Z36-MP5 ([8]; SEQ ID NO: 228, ATP BS): 7.80%
Inhibition (%) by 1 μM Z36-MP5 ([9]; HSPA2, SEQ ID NO: 102, ATP BS): −1.50%
Inhibition (%) by 1 μM Z36-MP5 ([9]; HSPA2, SEQ ID NO: 103, ATP BS): −5.18%
Inhibition (%) by 1 μM Z36-MP5 [10]: 14.74%
Inhibition (%) by 1 μM Z36-MP5 ([11]; SEQ ID NO: 22, ATP BS): −6.87%
Inhibition (%) by 1 μM Z36-MP5 ([11]; SEQ ID NO: 23, ATP BS): 2.00%
Inhibition (%) by 1 μM Z36-MP5 ([12]; NUDT1, SEQ ID NO: 142, ATP BS): 25.70%
Inhibition (%) by 1 μM Z36-MP5 ([12]; NUDT1, SEQ ID NO: 143, ATP BS): 22.17%
Inhibition (%) by 1 μM Z36-MP5 ([12]; NUDT1, SEQ ID NO: 144, ATP BS): 18.32%
Inhibition (%) by 1 μM Z36-MP5 [13]: −5.87%
Inhibition (%) by 1 μM Z36-MP5 [14]: 11.95%
Inhibition (%) by 1 μM Z36-MP5 [15]: −6.44%
Inhibition (%) by 1 μM Z36-MP5 ([16]; TTLL12, SEQ ID NO: 215, ATP BS): −5.29%
Inhibition (%) by 1 μM Z36-MP5 ([16]; TTLL12, SEQ ID NO: 216, ATP BS): −17.65%
Inhibition (%) by 1 μM Z36-MP5 [17]: 3.07%
Inhibition (%) by 1 μM Z36-MP5 [18]: 6.55%
Inhibition (%) by 1 μM Z36-MP5 [19]: −22.26%
Inhibition (%) by 1 μM Z36-MP5 [20]: 3.60%
Inhibition (%) by 1 μM Z36-MP5 [21]: 6.85%
Inhibition (%) by 1 μM Z36-MP5 ([22]; ASNA1, SEQ ID NO: 41, ATP BS): −3.04%
Inhibition (%) by 1 μM Z36-MP5 ([22]; ASNA1, SEQ ID NO: 42, ATP BS): 0.73%
Inhibition (%) by 1 μM Z36-MP5 [23]: −2.55%
Inhibition (%) by 1 μM Z36-MP5 [24]: −22.54%
Inhibition (%) by 1 μM Z36-MP5 [25]: −4.55%
Inhibition (%) by 1 μM Z36-MP5 [26]: 0.44%
Inhibition (%) by 1 μM Z36-MP5 [27]: −1.87%
